Measurements published in PubChem BioAssay AID2060483 (Molecular Pharmacology Branch, DTP, NCI, 2025).

Test system: K24384-001-R-PDC complex spheroids, viability
Assay: Anticancer human tumor K24384-001-R-PDC patient-derived pancreatic adenocarcinoma cell line growth inhibition [GQUAD]
Settings: for IC50: curve of first compound; for viability, T/C: stronger effect = lower value
Summary of the method: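 Tumor cells were grown as complex spheroids with HUVEC endothelial cells and mesenchymal stem cells as stroma. G-quadruplex stabilizers were combined with targeted agents over half-log dilutions from near the clinical Cmax, or from 10 microM.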
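Also: spheroids exposed to compounds for seven days.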

COc1cc(C2c3cc4c(cc3C(OC3OC5COC(C)OC5C(O)C3O)C3COC(=O)C23)OCO4)cc(OC)c1O (configuration not stated) + CN(C)c1ccc(Nc2c3ccc(NC(=O)CCN4CCCC4)cc3nc3cc(NC(=O)CCN4CCCC4)ccc23)cc1
IC50 (second compound 0.0316 µM): 958 nM
IC50 (second compound 0.1 µM): 836 nM
IC50 (second compound 0.316 µM): 762 nM
IC50 (second compound 1 µM): 807 nM
IC50 (second compound 3.16 µM): 665 nM
IC50 (second compound 10 µM): 710 nM
viability, T/C (second compound 0.0316 µM, first compound 0.0316 µM): 105%
viability, T/C (second compound 0.0316 µM, first compound 0.1 µM): 87.1%
viability, T/C (second compound 0.0316 µM, first compound 0.316 µM): 79.1%
viability, T/C (second compound 0.0316 µM, first compound 1 µM): 46%
viability, T/C (second compound 0.0316 µM, first compound 3.16 µM): 36.7%
viability, T/C (second compound 0.0316 µM, first compound 10 µM): 37.5%
viability, T/C (second compound 0.1 µM, first compound 0.0316 µM): 92%
viability, T/C (second compound 0.1 µM, first compound 0.1 µM): 99.7%
viability, T/C (second compound 0.1 µM, first compound 0.316 µM): 76.8%
viability, T/C (second compound 0.1 µM, first compound 1 µM): 46.3%
viability, T/C (second compound 0.1 µM, first compound 3.16 µM): 40.2%
viability, T/C (second compound 0.1 µM, first compound 10 µM): 41.4%
viability, T/C (second compound 0.316 µM, first compound 0.0316 µM): 94.9%
viability, T/C (second compound 0.316 µM, first compound 0.1 µM): 91%
viability, T/C (second compound 0.316 µM, first compound 0.316 µM): 76.1%
viability, T/C (second compound 0.316 µM, first compound 1 µM): 40.9%
viability, T/C (second compound 0.316 µM, first compound 3.16 µM): 45.3%
viability, T/C (second compound 0.316 µM, first compound 10 µM): 39.5%
viability, T/C (second compound 1 µM, first compound 0.0316 µM): 93.2%
viability, T/C (second compound 1 µM, first compound 0.1 µM): 95.3%
viability, T/C (second compound 1 µM, first compound 0.316 µM): 81.2%
viability, T/C (second compound 1 µM, first compound 1 µM): 42.9%
viability, T/C (second compound 1 µM, first compound 3.16 µM): 43%
viability, T/C (second compound 1 µM, first compound 10 µM): 38.5%
viability, T/C (second compound 3.16 µM, first compound 0.0316 µM): 93.8%
viability, T/C (second compound 3.16 µM, first compound 0.1 µM): 104%
viability, T/C (second compound 3.16 µM, first compound 0.316 µM): 67.7%
viability, T/C (second compound 3.16 µM, first compound 1 µM): 46.8%
viability, T/C (second compound 3.16 µM, first compound 3.16 µM): 36.9%
viability, T/C (second compound 3.16 µM, first compound 10 µM): 37.2%
viability, T/C (second compound 10 µM, first compound 0.0316 µM): 94.3%
viability, T/C (second compound 10 µM, first compound 0.1 µM): 105%
viability, T/C (second compound 10 µM, first compound 0.316 µM): 60.9%
viability, T/C (second compound 10 µM, first compound 1 µM): 59.1%
viability, T/C (second compound 10 µM, first compound 3.16 µM): 30.8%
viability, T/C (second compound 10 µM, first compound 10 µM): 46.3%
